Experimental data reported in US9701689B2, “Substituted pyridines and pyridazines as CCR10 receptor inhibitors” (KYOWA HAKKO KIRIN CO., LTD., priority 2012, dated 2017).

Each molecule was assayed against T1, human CCR10 (Homo sapiens, UniProt P46092) (assay: CCR10 antagonistic effect: calcium assay of human CCR10 (CTACK-induced increase of intracellular calcium in hCCR10G16 cells)). Details: at a concentration of not more than 1000 nmol/L; human CCR10-expressing hCCR10G16 cells, 300 nmol/L CTACK added; read-out: inhibition of increase in the calcium ion concentration.
T1 construct: expressed in transfected cells; host or cells: KJMGER8 cells (Namalwa cell-derived line), beta-estradiol-induced; hCCR10G16 cells
T1 sequence (P46092 1-362): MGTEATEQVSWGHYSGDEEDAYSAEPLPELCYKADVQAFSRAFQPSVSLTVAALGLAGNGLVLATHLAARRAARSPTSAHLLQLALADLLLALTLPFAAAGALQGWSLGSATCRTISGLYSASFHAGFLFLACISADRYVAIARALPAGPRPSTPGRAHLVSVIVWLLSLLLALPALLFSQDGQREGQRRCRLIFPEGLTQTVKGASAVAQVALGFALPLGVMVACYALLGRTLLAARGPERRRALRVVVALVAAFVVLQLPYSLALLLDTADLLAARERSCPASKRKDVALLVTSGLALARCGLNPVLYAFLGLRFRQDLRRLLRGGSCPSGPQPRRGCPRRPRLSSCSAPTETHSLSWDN
Assay type: cell-based
Outline: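 Inhibition of CTACK-evoked calcium flux (max minus min Fluo-3 fluorescence over ~5 min, FDSS) was calculated against control in β-estradiol-induced human CCR10/Gα16 KJMGER8 cells, after 30 min compound preincubation at 37 °C; CTACK added from a 300 nmol/L solution.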

Inhibition at up to 1 µM, ≥ 50%:
NS(=O)(=O)c1cc(Nc2ccc(Cl)cc2F)c(C(=O)N2CCC(c3ccc(F)cc3)CC2)cn1 [Compound 80, 4-(4-chloro-2-fluorophenylamino)-5-[4-(4-fluorophenyl)piperidine-1-carbonyl]pyridine-2-sulfonamide]
Cc1cc(F)ccc1Nc1cc(S(=O)(=O)Nc2ccccn2)ncc1C(=O)N1CCC(c2ccc(F)cc2)CC1 [Compound 146, 4-(4-fluoro-2-methylphenylamino)-5-[4-(4-fluorophenyl)piperidine-1-carbonyl]-N-(pyridin-2-yl)pyridine-2-sulfonamide]
CCOC(=O)NS(=O)(=O)c1cc(Nc2ccc(Cl)cc2C)c(C(=O)N2CCC(c3ccc(F)cc3)CC2)cn1 [Compound 173, ethyl 4-(4-chloro-2-methylphenylamino)-5-[4-(4-fluorophenyl)piperidine-1-carbonyl]pyridin-2-ylsulfonylcarbamate]
Cc1c(S(N)(=O)=O)ncc(C(=O)N2CCC(c3ccc(F)cc3)CC2)c1NC(C)c1ccccc1 (stereo not drawn) [Compound 220, 5-[4-(4-fluorophenyl)piperidine-1-carbonyl]-3-methyl-4-(1-phenylethylamino)pyridine-2-sulfonamide]
Cc1cc(Nc2cc(S(N)(=O)=O)ncc2C(=O)N2CCC(c3ccc(F)cc3)CC2)c(C)cc1Cl [Compound 17, 4-(4-chloro-2,5-dimethylphenylamino)-5-[4-(4-fluorophenyl)piperidine-1-carbonyl]pyridine-2-sulfonamide]
CCc1ccccc1Nc1c(C(=O)N2CCC(c3ccc(F)cc3)CC2)cnc(S(=O)(=O)Nc2ccon2)c1C [Compound 239, 4-(2-ethylphenylamino)-5-[4-(4-fluorophenyl)piperidine-1-carbonyl]-N-(isoxazol-3-yl)-3-methylpyridine-2-sulfonamide]
Cc1ccc(Nc2cc(S(N)(=O)=O)ncc2C(=O)N2CCC(c3ccc(F)cc3)CC2)c(C)c1 [Compound 55, 4-(2,4-dimethylphenylamino)-5-[4-(4-fluorophenyl)piperidine-1-carbonyl]pyridine-2-sulfonamide]
Cc1cccc(Nc2c(C(=O)N3CCC(c4ccc(F)cc4)CC3)cnc(S(=O)(=O)Nc3ccon3)c2C)c1F [Compound 264, 4-(2-fluoro-3-methylphenylamino)-5-[4-(4-fluorophenyl)piperidine-1-carbonyl]-N-(isoxazol-3-yl)-3-methylpyridine-2-sulfonamide]
COc1ccc(Nc2cc(S(N)(=O)=O)ncc2C(=O)N2CCC(c3ccc(F)cc3)CC2)c(F)c1 [Compound 87, 4-(2-fluoro-4-methoxyphenylamino)-5-[4-(4-fluorophenyl)piperidine-1-carbonyl]pyridine-2-sulfonamide]
Cc1cc(F)ccc1Nc1cc(S(=O)(=O)N2CCCC2C(N)=O)ncc1C(=O)N1CCC(c2ccc(F)cc2)CC1 (stereo not drawn) [Compound 123, 1-{4-(4-fluoro-2-methylphenylamino)-5-[4-(4-fluorophenyl)piperidine-1-carbonyl]pyridin-2-ylsulfonyl}pyrrolidine-2-carboxamide]
Cc1c(S(=O)(=O)Nc2ccon2)ncc(C(=O)N2CCC(c3ccc(F)cc3)CC2)c1Nc1ccc(C#N)cc1 [Compound 298, 4-(4-cyanophenylamino)-5-[4-(4-fluorophenyl)piperidine-1-carbonyl]-N-(isoxazol-3-yl)-3-methylpyridine-2-sulfonamide]
Cc1ccccc1Nc1c(C(=O)N2CCC3(CC2)COc2ccccc23)cnc(S(N)(=O)=O)c1C [Compound 305, 3-methyl-5-(2H-spiro[benzofuran-3,4′-piperidin]-1′-ylcarbonyl)-4-(o-tolylamino)pyridine-2-sulfonamide]
CCCNC(=O)NS(=O)(=O)c1cc(Nc2cc(C)c(Cl)cc2Cl)c(C(=O)N2CCC(c3ccc(F)cc3)CC2)cn1 [Compound 165, 4-(2,4-dichloro-5-methylphenylamino)-5-[4-(4-fluorophenyl)piperidine-1-carbonyl]-N-(propylcarbamoyl)pyridine-2-sulfonamide]
Cc1cccc(Nc2c(C(=O)N3CC=C(c4ccc(F)cc4)CC3)cnc(S(N)(=O)=O)c2Cl)c1 [Compound 202, 3-chloro-5-[4-(4-fluorophenyl)-1,2,3,6-tetrahydropyridine-1-carbonyl]-4-(m-tolylamino)pyridine-2-sulfonamide]
Cc1cccc(Nc2c(C(=O)N3CCC(O)(c4ccc(F)cc4)CC3)cnc(S(N)(=O)=O)c2Cl)c1 [Compound 199, 3-chloro-5-[4-(4-fluorophenyl)-4-hydroxypiperidine-1-carbonyl]-4-(m-tolylamino)pyridine-2-sulfonamide]
NS(=O)(=O)c1ncc(C(=O)N2CCC(c3ccc(F)cc3)CC2)c(Nc2ccc3c(c2)CCC3=O)c1Cl [Compound 243, 3-chloro-5-[4-(4-fluorophenyl)piperidine-1-carbonyl]-4-(1-oxo-2,3-dihydro-1H-inden-5-ylamino)pyridine-2-sulfonamide]
Cc1cc(F)ccc1Nc1cc(S(=O)(=O)Nc2ncc(Br)cn2)ncc1C(=O)N1CCC(c2ccc(F)cc2)CC1 [Compound 147, N-(5-bromopyrimidin-2-yl)-4-(4-fluoro-2-methylphenylamino)-5-[4-(4-fluorophenyl)piperidine-1-carbonyl]pyridine-2-sulfonamide]
CCNC(=O)NS(=O)(=O)c1cc(NCc2ccccc2)c(C(=O)N2CCC(c3ccc(F)cc3)CC2)cn1 [Compound 163, 4-(benzylamino)-N-(ethylcarbamoyl)-5-[4-(4-fluorophenyl)piperidine-1-carbonyl]pyridine-2-sulfonamide]
Cc1cc(F)ccc1Nc1cc(S(=O)(=O)Nc2nccs2)ncc1C(=O)N1CCC(c2ccc(F)cc2)CC1 [Compound 148, 4-(4-fluoro-2-methylphenylamino)-5-[4-(4-fluorophenyl)piperidine-1-carbonyl]-N-(thiazol-2-yl)pyridine-2-sulfonamide]
Cc1c(S(=O)(=O)Nc2ccon2)ncc(C(=O)N2CCC(c3ccc(F)cc3)CC2)c1Nc1cccc(F)c1F [Compound 254, 4-(2,3-difluorophenylamino)-5-[4-(4-fluorophenyl)piperidine-1-carbonyl]-N-(isoxazol-3-yl)-3-methylpyridine-2-sulfonamide]
CCCNC(=O)NS(=O)(=O)c1cc(Nc2ccc(Cl)cc2C)c(C(=O)N2CCC(c3ccc(F)cc3)CC2)cn1 [Compound 170, 4-(4-chloro-2-methylphenylamino)-5-[4-(4-fluorophenyl)piperidine-1-carbonyl]-N-(propylcarbamoyl)pyridine-2-sulfonamide]
COc1ccc(Nc2c(C(=O)N3CCC(c4ccc(F)cc4)CC3)cnc(S(N)(=O)=O)c2Cl)c(C)c1 [Compound 178, 3-chloro-5-[4-(4-fluorophenyl)piperidine-1-carbonyl]-4-(4-methoxy-2-methylphenylamino)pyridine-2-sulfonamide]
CNC(=O)C1COCCN1S(=O)(=O)c1ncc(C(=O)N2CCC(c3ccc(F)cc3)CC2)c(Nc2ccc(F)cc2C)c1Cl (stereo not drawn) [Compound 35, 4-{3-chloro-4-(4-fluoro-2-methylphenylamino)-5-[4-(4-fluorophenyl)piperidine-1-carbonyl]pyridin-2-ylsulfonyl}-N-methylmorpholine-3-carboxamide]
Cc1c(S(=O)(=O)Nc2ccon2)ncc(C(=O)N2CCC(c3ccc(F)cc3)CC2)c1NCCN1CCOCC1 [Compound 224, 5-[4-(4-fluorophenyl)piperidine-1-carbonyl]-N-(isoxazol-3-yl)-3-methyl-4-(2-morpholinoethylamino)pyridine-2-sulfonamide]
Cc1c(S(N)(=O)=O)ncc(C(=O)N2CCC(c3ccc(F)cc3)CC2)c1NCc1cccnc1 [Compound 221, 5-[4-(4-fluorophenyl)piperidine-1-carbonyl]-3-methyl-4-(pyridin-3-ylmethylamino)pyridine-2-sulfonamide]
Cc1ccc(Cl)c(Nc2cc(S(N)(=O)=O)ncc2C(=O)N2CCC(c3ccc(F)cc3)CC2)c1 [Compound 50, 4-(2-chloro-5-methylphenylamino)-5-[4-(4-fluorophenyl)piperidine-1-carbonyl]pyridine-2-sulfonamide]
Cc1cc(F)ccc1Nc1cc(S(=O)(=O)Nc2nccn2C)ncc1C(=O)N1CCC(c2ccc(F)cc2)CC1 [Compound 149, 4-(4-fluoro-2-methylphenylamino)-5-[4-(4-fluorophenyl)piperidine-1-carbonyl]-N-(1-methyl-1H-imidazol-2-yl)pyridine-2-sulfonamide]
